The numbers were not newly measured in US11406849B2, “Amino alcohol-containing skin cleansing composition for removing keratotic plugs from skin” (KAO CORPORATION, priority 2017, dated 2022), which cites them from elsewhere.

Regarding `NC(CO)(CO)CO` [Component (X1), 2-amino-2-hydroxymethyl-1,3-propanediol], the Solubility in water result is “readily dissolved in water”.
With `CC(C)(N)CO` [Component (X2), 2-amino-2-methyl-1-propanol], the Solubility in water entry is “readily dissolved in water”.
